Experimental data: BindingDB's records for patent US11718613 (University of Michigan, 2023)

Biological target: Induced myeloid leukemia cell differentiation protein Mcl-1 (Homo sapiens, UniProt Q07820)
Experiment: Bcl-2 and Bcl-xL Inhibition Assay
Experimental: Fluorescence polarization values were measured using the Infinite M-1000 plate reader (Tecan U.S., Research Triangle Park, N.C.) in Microfluor 1 96-well, black, round-bottom plates (Thermo Scientific). […] Plates were mixed and incubated at room temperature for 1 hour with gentle shaking to assure equilibrium. […] Equilibrium dissociation constants (Kd) were then calculated by fitting the sigmoidal dose-dependent FP increases as a function of protein concentrations using Graphpad Prism 5.0 software (Graphpad Software, San Diego, Calif.).

Chain of Induced myeloid leukemia cell differentiation protein Mcl-1 (Q07820 whole entry): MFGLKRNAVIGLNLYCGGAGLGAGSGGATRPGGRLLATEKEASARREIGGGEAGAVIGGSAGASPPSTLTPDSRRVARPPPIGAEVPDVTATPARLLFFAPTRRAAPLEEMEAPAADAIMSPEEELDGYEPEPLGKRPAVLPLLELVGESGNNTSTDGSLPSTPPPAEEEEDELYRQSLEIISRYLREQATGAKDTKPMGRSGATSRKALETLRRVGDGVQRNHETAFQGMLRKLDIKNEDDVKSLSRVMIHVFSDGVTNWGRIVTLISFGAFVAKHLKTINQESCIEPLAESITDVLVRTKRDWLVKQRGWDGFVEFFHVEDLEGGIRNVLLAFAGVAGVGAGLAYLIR

Q: For `O=C(NS(=O)(=O)c1ccc(NC[C@@H]2COCCO2)c([N+](=O)[O-])c1)c1ccc(N2CCN(CC3=C(c4ccc(Cl)cc4)CC4(CCC4)CC3)CC2)cc1Oc1cnc2[nH]ccc2c1` [US11718613, Compound 13], which IC50 is on record?
A: The IC50 was > 5 µM.
